Data on 42 substances can be found in patent US20220267394A1, “COMPOUNDS FOR INDUCING TISSUE FORMATION AND USES THEREOF” (HISTIDE AG, priority 2015, published 2022).

The test system of this experiment is hMSCs. Kind of experiment: Loss of stemness: STRO-1 expression by immunostaining. It counts as cell-based, human. The method, then: The cells were first fixed for 20 min with 4% paraformaldehyde/PBS at 4° C. After fixation, the cells were permeabilized in PBS containing 1% Triton X-100 for 15 min. Runx2, Osterix, Stro-1, Vinculin, Phalloidin, Osteopontin, Sox2, Sox9 antibodies were visualized by treating the cells with 1% (v/v) specific monoclonal antibodies for 1 hour at 37° C. Then the samples were incubated with Alexa Fluor® 568 or 647 (F(ab′)2 fragment of IgG(H+L)) during 30 min at room temperature. The cell nuclei were counterstained in 20 ng/mL DAPI for 10 min at room temperature.
For this type of quantification the freeware image analysis ImageJ® software was used. The raw image was first converted to an 8-bit file, and then the unsharp mask feature was used (settings 1:0.2) to remove the image background (rolling ball radius 10). After smoothing, the resulting image, which appears similar to the original photomicrograph but with minimal background, was then converted to a binary image by setting a threshold. Threshold values were determined empirically by selecting a setting, which gave the most accurate binary image for a subset of randomly selected photomicrographs. The cell area was determined by manual delineation on raw fluorescent images. Total contact area and mean contact area per cell were calculated by “analyse particules” in ImageJ®. A minimum of 30 cells per condition were analyzed. Stro-1, CD-34+, and CD-105 expressions were determined using this procedure.
hMSCs were cultured on conventional cell culture plastic plates with or without the presence in the cell culture media of different GFR-binding compounds as described herein (SEQ ID NO: 50 to 88) in solution. […] This was probed by Stro-1 immunostaining after cell fixation as described in the Methods section. The quantification of Stro-1 positive contact numbers and areas was performed as described in the Methods section. A minimum of 30 cells per condition were analyzed. Stro-1 positive marrow cells are multipotential and capable of differentiating into multiple mesenchymal lineages including stromal cells with a phenotype resembling vascular smooth muscle cells that can support hematopoiesis, adipocytes, osteoblasts, and chondrocytes.
Using the method detailed in the description, the RMSD of 57 previously reported peptide sequences have been determined (Table 6) and correlated with the expression of STRO-1 in solution. […] One should note that it is commonly admitted that the expression of STRO-1 in a cell is indicative of a cell that is in a substantially non-differentiated state and the decrease of its expression of at least about 20% is indicative of a cell that has started a process of differentiation but which may not result in the differentiation of the cell. A decrease of more than 50% would be indicative of the presence of a significant shift towards a differentiated state. A decrease of more than 70% would be indicative of the presence of a very important shift towards a differentiated state. A sustained decrease (e.g. for at least 96 h) of more than 50% or 70% would be indicative of the presence of an even more important shift towards a differentiated state.
Likewise, using the method detailed in the description, the RMSD of 75 GFR-binding peptide sequence representatives of the invention have been determined (Table 8) and correlated with the expression of STRO-1. SEQ ID NO: 1 to 49 were tested in combination with a bioactive carrier as defined above in the Examples Section (i.e. titanium, ceramics, collagen, etc. . . . ), whereas SEQ ID NO: 2242 to 2267 were tested in solution.

Setting [1] is: Table 6, previously reported peptides in solution, 400 ng/mL.
The mark [2] stands for this setting: Table 8, SEQ ID NO: 2242 to 2267 tested in solution.
Setting [3] is: Table 8, SEQ ID NO: 1 to 49 tested in combination with a bioactive carrier (titanium, ceramics, collagen, etc.).

Where no end group is shown, it is not given here.

Regarding “2175 (VGAAWWLREQGSPINTLAVPA; Peptide reported in WO2013040142, SEQ ID NO:133294) [compound 2175]”, the “STRO-1 expression (%)” value under setting [1] is 88%.

For the substance “2213 (KPCCAPTQLSAISVLYFDDSSNVILKKYRNMVVRACGCR; Peptide reported in US20050250936, SEQ ID NO:123) [compound 2213]”, the “STRO-1 expression (%)” value under setting [1] worked out at 80%.

“2201 (KIPKPSSAPTELSAISMC; Peptide reported in WO2009151288, SEQ ID NO:7) [compound 2201]”: the “STRO-1 expression (%)” value under setting [1] is listed as 78%.

With “2261 (NDEGLESVPTGQSPISILYIRIKPHQGQHYKQYELEEHSQSESR; GFR-binding peptide) [compound 2261]”, under setting [2], the “STRO-1 expression (%)” value is 17%.

As for “2185 (LGIAAIIFLQQVPAAFSATSPPG; Peptide reported in WO2013040142, SEQ ID NO:1139935) [compound 2185]”, the “STRO-1 expression (%)” value under setting [1] is on record as 97%.

Turning to “44 (CAAPASSSVPARLSPISILYIDAANNVVYKQYEDMVVE; not fully specified; ends and bridges not checked) [compound 44]”, the “STRO-1 expression (%)” value under setting [3] came to 27%.

As to “2168 (MSRVLFEPLTFLQTGSGLPDEKTLG; Peptide reported in US20080081768, SEQ ID NO:28800) [compound 2168]”, the “STRO-1 expression (%)” value under setting [1] is 94%.

Turning to “2169 (IKSPARHSAPTHQEPLP; Peptide reported in WO2013040142, SEQ ID NO:3157977) [compound 2169]”, under setting [1], the “STRO-1 expression (%)” value is 98%.

For the substance “14 (CAPTKLSAISMLYLDSSNNVILKNYQ; GFR-binding peptide) [compound 14]”, under setting [3], the “STRO-1 expression (%)” value stood at 16%.

Consider “2158 (VEQLSNMVVK; Peptide reported in US20130259924, SEQ ID NO:21667) [compound 2158]”, for which the “STRO-1 expression (%)” value under setting [1] worked out at 98%.

As to “2267 (ASASPSSVSQDLRSVKVAKVIGKTPKIKEVQVMIVKSSKSS; GFR-binding peptide) [compound 2267]”, under setting [2], the “STRO-1 expression (%)” value was found to be 34%.

For the substance “2265 (AVPKASSVPQKLEPLTILYYDSSNNVIEQLSNNMVKSASGSH; GFR-binding peptide) [compound 2265]”, the “STRO-1 expression (%)” value under setting [2] worked out at 21%.

For the substance “2266 (RVPSTSSAPVKTSNITMQIMDNGRVLLLGEMSMIVEESGSL; GFR-binding peptide) [compound 2266]”, the “STRO-1 expression (%)” value under setting [2] is 22%.

Turning to “2211 (CCAPTELSAISVLYFDDSSNVILKKYRNMVVRACGCR; Comparative sequence) [compound 2211]”, the “STRO-1 expression (%)” value under setting [1] is 81%.

For “2260 (VPQRLEPLTILYYDAANNVVEQLSNDMVKS; GFR-binding peptide) [compound 2260]”, the “STRO-1 expression (%)” value under setting [2] amounted to 23%.

In the case of “2181 (VPTKLSPISILYKDDMGVPTYKFKYEGMSVAECGCR; Peptide reported in US20140056902, SEQ ID NO:88) [compound 2181]”, the “STRO-1 expression (%)” value under setting [1] is 82%.

For “2172 (PNYSVPAGNKPLSERE; Peptide reported in WO2013040142, SEQ ID NO:543064) [compound 2172]”, the “STRO-1 expression (%)” value under setting [1] was 95%.

As for “3 (CASASPSSVSQDLSAISTLYLIGKTPKILKNYQMIVKSSKSS; not fully specified; ends and bridges not checked) [compound 3]”, under setting [3], the “STRO-1 expression (%)” value is reported as 18%.

For “27 (GTPGPAPTKLSAISMLYLDSSNNVILRKHR; GFR-binding peptide) [compound 27]”, the “STRO-1 expression (%)” value under setting [3] turned out to be 19%.

With “2191 (ANINKDRDNVPAATSSLSKAYNP; Peptide reported in WO2013040142, SEQ ID NO:2326359) [compound 2191]”, under setting [1], the “STRO-1 expression (%)” value is reported as 92%.

Turning to “47 (CAAAPASXXVPARLSPISILYIAAAYKQYEDM; GFR-binding peptide; MOD_RES (8), (9): Xaa is C or S) [compound 47]”, under setting [3], the “STRO-1 expression (%)” value is 18%.

Consider “2258 (SRVLLRPVQMRKIDKGVVTYKKATVLLEEH; GFR-binding peptide) [compound 2258]”, for which the “STRO-1 expression (%)” value under setting [2] amounted to 21%.

As for “2203 (TCCVPELSAISMLYLDEN; Peptide reported in US5496552, SEQ ID NO:5) [compound 2203]”, the “STRO-1 expression (%)” value under setting [1] turned out to be 84%.

“41 (CGIPEPSSVPEKMSSLSILFFDENKNVVLKVYPNM; not fully specified; ends and bridges not checked) [compound 41]”: the “STRO-1 expression (%)” value under setting [3] amounted to 22%.

Turning to “2193 (DKPEESSSTPTHAQCICSSLSEAIVSSVLSTRLVLSQISLTRAKRAFE; Peptide reported in US20130333061, SEQ ID NO:139889) [compound 2193]”, the “STRO-1 expression (%)” value under setting [1] stood at 87%.

“25 (GTPGPAPTQLSPISVLYKDDSSNVILKYHY; GFR-binding peptide) [compound 25]”: the “STRO-1 expression (%)” value under setting [3] stood at 23%.

As to “2205 (KIPKPSSAPTELSAISMLYC; Peptide reported in WO2009151288, SEQ ID NO:5) [compound 2205]”, under setting [1], the “STRO-1 expression (%)” value came to 80%.

“2159 (PIIYYVGRNVRVEQLSNMVVRA; Peptide reported in US5436228, SEQ ID NO:14) [compound 2159]”: under setting [1], the “STRO-1 expression (%)” value is 92%.

Turning to “28 (GTPGPAPTKLSAISMLYLDSSNNVILKKYR; GFR-binding peptide) [compound 28]”, the “STRO-1 expression (%)” value under setting [3] was determined as 19%.

Turning to “2170 (NPGASASPCCVSQDLEPLPIL; Peptide reported in JP06025288, SEQ ID NO:8) [compound 2170]”, the “STRO-1 expression (%)” value under setting [1] is recorded as 86%.

On to “26 (GTPGPASSAVSQELSAISMLYLGGGLKNYQDM; GFR-binding peptide) [compound 26]”, for which the “STRO-1 expression (%)” value under setting [3] was 22%.

Take “2179 (TLXPIVSSXNPSPISFRXIKILLHDLEVVPFPKSRVR; Peptide reported in US20040031072, SEQ ID NO:272830; MOD_RES (3), (9), (18): Xaa is A) [compound 2179]”: under setting [1], the “STRO-1 expression (%)” value is on record as 84%.

“2164 (HIRSTTSSYVSLKSNITNRTIQTPTYSYT; Peptide reported in US20120216318, SEQ ID NO:347659) [compound 2164]”: the “STRO-1 expression (%)” value under setting [1] was determined as 98%.

As for “2262 (HVTKPTSVPTKLSPISILFIDDSSNVIYKQYENMVVESSGSH; GFR-binding peptide) [compound 2262]”, the “STRO-1 expression (%)” value under setting [2] came out at 18%.

As to “7 (CTVPKPXXAPTQLSPISVLYKDDSSNVILKYHYNMVVRAXGXH; GFR-binding peptide; MOD_RES (7), (8), (40), (42): Xaa is C or S) [compound 7]”, under setting [3], the “STRO-1 expression (%)” value was 18%.

For the substance “2160 (PIIYYVGRNVRVEQLSNMVVRRA; Comparative sequence) [compound 2160]”, the “STRO-1 expression (%)” value under setting [1] turned out to be 98%.

Consider “30 (GTPGPKASSVPTELSPISTLYKDENEKVVLKYHYDM; GFR-binding peptide) [compound 30]”, for which the “STRO-1 expression (%)” value under setting [3] was found to be 18%.

Consider “13 (CSIPKASSVPTELSATSVLYYDEYDEKVVLRKHEMVVEG; not fully specified; ends and bridges not checked) [compound 13]”, for which the “STRO-1 expression (%)” value under setting [3] stood at 23%.

For the substance “2243 (VPEAASSLSMLFFEIVRKKPIFLKVYPAATVE; GFR-binding peptide) [compound 2243]”, the “STRO-1 expression (%)” value under setting [2] is on record as 19%.

Turning to “2194 (KGSEYEKLVVSGITQVYQSSLSWHGCKSCCEVQVXNLXILIRLYDVHYYN; Peptide reported in US20040172684, SEQ ID NO:47782; MOD_RES (35), (38): Xaa is A) [compound 2194]”, under setting [1], the “STRO-1 expression (%)” value worked out at 88%.

For the substance “10 (CPSSAPTQLSATSVLYYDDSSNVILRKHRQHNK; GFR-binding peptide) [compound 10]”, under setting [3], the “STRO-1 expression (%)” value is on record as 19%.

Consider “22 (WWFWGKVPKPSSAPTQLSAISTLYLDEYDKVVLKNYQNMVVR; not fully specified; ends and bridges not checked) [compound 22]”, for which, under setting [3], the “STRO-1 expression (%)” value is given as 17%.
